The text below walks through data of a melting point compilation (Tetko et al.; mined from patent text by program, amines drawn as free bases though some values may be those of a salt).

Bounds are passed on as bounds.

The compound `Cc1ccc2nc(NC(=O)c3ccc(C(C)(C)CCC(=O)O)cc3)cn2c1` registered a melting point of 280 to 282 °C.
Regarding `N#Cc1cc(-c2ccncc2)cnc1Cl`, the melting point was in the range of 219 to 223 °C.
The value for `CC(=O)Oc1cccc(C(C)=NOCCOc2ccc(CC3SC(=O)NC3=O)cc2)c1` (configuration not stated) was 30 to 50 °C.
In turn, `COc1ccc(C(=O)Nc2ccc(F)c(F)c2)cc1NC(=S)Nc1cccc(C(=O)O)c1` showed a melting point of 221 to 222 °C.
The value for `O=C1C(Cc2ccncc2)c2ccccc2N1N1CCOCC1` (configuration not stated) was 108 to 110 °C; that for `Nc1nccc2[nH]cnc12` was 260 to 262 °C; that for `CN(C)C1=NC(NC(=O)CC2CCCCC2)C(=O)N(c2ccccc2)c2ccccc21` (configuration not stated) was 264 to 266 °C.
`O=C1NC(=O)c2c1c(-c1ccccc1)cc1c2c2cc(O)ccc2n1CC(O)CO` (configuration not stated): the melting point was 290 to 295 °C.
Under `Cc1cc(CBr)c(CBr)cc1C` stands 116 to 120 °C.
Take `COc1cccc2c(Cl)nc(Cl)nc12`: the melting point was 155 to 157 °C.
The value for `COC(=O)C(C)N(C(=O)CCl)c1c(Cl)cccc1Cl` (configuration not stated) was 82 to 85 °C; that for `COc1nc2ncccc2c2nc(S(=O)(=O)Nc3c(Cl)cccc3Cl)nn12` was 290 to 293 °C.
Under `COCOc1ccccc1COc1cc2c(cc1-c1cc(C=CC(=O)O)ccc1OC)C(C)(C)CCC2(C)C` stands 159 to 161 °C; under `Nc1ccsc1C(=O)NCC1CCN(C[C@H]2COc3ccc(Cl)cc3O2)CC1`, 200 to 202 °C.
With `CCc1cn(C2CC(O)C(CNC(=O)c3ccc4ccccc4c3)O2)c(=O)[nH]c1=O` (configuration not stated), the melting point is 242 to 244 °C.
The value for `COc1c(C#C[Si](C)(C)C)cc(-n2ccc(=O)[nH]c2=O)cc1-c1ccc2cc(NS(C)(=O)=O)ccc2c1` was 175 to 178 °C.
Under `COc1cc(Oc2ccc(S(C)(=O)=O)cc2)cc2cc(C3=NCC(CC(N)=O)S3)[nH]c12` (configuration not stated) stands 169 to 170 °C; under `CCCOc1ccc(S(C)(=O)=O)cc1-c1nc2c(CC)nn(Cc3ccccn3)c2c(=O)[nH]1`, 209 to 211 °C; under `O=S(=O)(COc1ccc(Cl)cc1)c1ccc(Cl)cc1`, 114 °C.
`O=C(NCCN1CCCCC1n1c(=O)[nH]c2ccccc21)c1cccc(F)c1` (configuration not stated) came in with a melting point of 226 °C.
For `Cc1nc2cnccc2n1-c1ccc(C2=Cc3nccn3-c3cc(Cl)c(Cl)cc3N2C)cc1`, the melting point is 268 to 270 °C.
The value for `Cc1cc(C)c2[nH]c(=O)c(O)cc(=O)c2c1` was 211 to 213 °C; that for `CCOP(=O)(/C=C/c1cn(-c2ccccc2)nc1OCc1ccc(OCc2nc(-c3ccc(C)c(C(=O)OC)c3)oc2C)c(OC)c1)OCC` was 121 to 122 °C; that for `Fc1ccc(F)c2c(NCCc3ccc(Oc4ccnc(C(F)(F)F)c4Cl)cc3)ncnc12` was 129 to 131 °C.
`Cc1nc(-c2ccncc2)sc1-c1cccnc1` yielded a melting point of 113 to 114 °C.
The compound `COC(=O)C=Cc1ccc(Cl)c(C(F)(F)F)c1` displayed a melting point of 71 to 73 °C.
Under `Cc1oc2c(C)c(Cc3ccccc3)c(C3CC(=O)NC(=O)C3)cc2c1C` stands 138 °C; under `COC(=O)c1cc(N2CCN([C@H]3CC[C@@H](c4cn(C)c5ccc(C#N)cc54)CC3)CC2)c2ncccc2c1`, 153 to 155 °C; under `COc1ccc(S(=O)(=O)C2(C(=O)O)CCN(C)CC2)cc1`, 204 °C.
The value for `CC(N)C(=O)Nc1coc2cc(NS(C)(=O)=O)c(Oc3ccccc3)cc2c1=O` (configuration not stated) was 111 to 113 °C.
`O=S(=O)(c1ccc(O)c(-c2ccccc2)c1)c1ccc(O)c(-c2ccccc2)c1` gave a melting point of 243 to 245 °C.
`CC(C)(O)COc1c(-c2ccc(S(C)(=O)=O)cc2)cnn(-c2ccc(F)cc2)c1=O` yielded a melting point of 152 to 154 °C.
`COc1cc2nc(N3CCc4c(cccc4C(=N)N4CCOCC4)C3)[nH]c(=O)c2cc1OC`: the melting point lay within 249 to 251 °C.
For the compound `COC(=O)c1cc(OCc2ccccc2)ccc1O`, the melting point was 108 to 112 °C.
As to `O=C(CCC1CCCC1)Nc1cccc2ncccc12`, the melting point was 135 to 138 °C.
Regarding `Cc1nnc(SCC2=C(C(=O)OC(c3ccccc3)c3ccccc3)N3C(=O)C(N)C3SC2)s1` (configuration not stated), the melting point fell in the range of 157 to 159 °C.
The compound `CC(C)N1CCC(CNc2ccc(F)cc2C(=O)Nc2ccc(Cl)cn2)CC1` gave a melting point of 142 to 144 °C.
For the compound `CCOC(=O)c1[nH]c2ccc(Cl)c(F)c2c1S(=O)(=O)c1cc(C)cc(C)c1`, the melting point lay in the range of 224 to 226 °C.
Take `CCN(CC)C(=O)c1cc(C)ccc1-c1ccc(OC)cc1`: the melting point is 113 to 114 °C.
In the case of `O=C(CS(=O)(=O)C(c1ccc(Cl)cc1)c1ccc(Cl)cc1)c1cccs1`, the melting point was in the range of 150 to 151 °C.
The value for `COc1ccc2c(c1)cc1n2CCC(COC(C)=O)C1` (configuration not stated) was 98 to 100 °C; that for `CCNCC1(C)CN(c2cc3c(cc2F)c(=O)c(C(=O)O)cn3C2CC2)C1` was 221 to 226 °C; that for `C[C@H](OC(c1ccccc1)(c1ccccc1)c1ccccc1)C(=O)O` was 100 to 106 °C.
`CCC(O)c1ccc(Cl)c2nc3n(c12)CCCN3c1ccc(Cl)cc1C(F)(F)F` (configuration not stated): the melting point is 220 to 222 °C.
The value for `O=C(NN=Cc1ccc(Br)cc1)c1[nH]c2ccccc2c1Cc1ccccc1` was 227 to 229 °C; that for `COc1cccc2c1CCNCC2` was 44.3 to 45 °C; that for `COc1ccc2cc(C(C)C(=O)ON3CCCCC3)ccc2c1` (configuration not stated) was 95 to 97 °C.
The value for `CCOC(=O)c1cn2c(cc(OC(C)C)c3ccc(OC)cc32)n1` was 117 to 118 °C; that for `COc1cc(F)c2c(c1)Oc1ccccc1S2(=O)=O` was 226 to 230 °C; that for `O=C(Cc1ccc(Cl)cc1)C1(c2ccc(Cl)c(Cl)c2)CCC1` was 82 to 84 °C.
The value for `COC(=O)c1nc(N(C)C2CCCCC2)ccc1Oc1nc(OC)cc(OC)n1` was 116 to 118 °C; that for `FC(F)(F)c1cccc(CSc2nnc(-c3ccnc4[nH]ccc34)o2)c1` was 164 to 165 °C; that for `NS(=O)(=O)c1ccc(-c2noc(-c3cnc4ccc(-c5ccc(Cl)cc5)cn34)n2)s1` was 263 °C.
The compound `O=C(Nc1cccnc1)N1CCc2ccc(Cl)cc21` displayed a melting point of 204 to 205 °C.
The value for `O=C(NOc1ncc(C(F)(F)F)cc1Cl)c1cccc2ccccc12` was 198 to 199 °C; that for `CN1C[C@H](CCCl)Oc2ncccc2C1=O` was 61 to 62 °C; that for `CN(Cc1cc(C(F)(F)F)cc(C(F)(F)F)c1)C(=O)c1nc(Cl)c2ccccc2c1-c1ccc(F)cc1` was 142 to 143 °C.
The value for `COc1cc(-c2oc3ccccc3c(=O)c2OCC(O)CN2CCN(c3ccccc3)CC2)cc(OC)c1OC` (configuration not stated) was 170 to 171 °C; that for `O=C(O)c1nc2c(=O)[nH]c3cc(C(F)(F)F)ccc3n2c1Cn1cnc(Cl)c1Cl` was 213 to 215 °C.
Consider `COc1cccc(CN=C(Cc2ccccc2)N2CC3C(=O)CCC(c4ccccc4)(c4ccccc4)C3C2)c1` (configuration not stated), for which the melting point worked out at 127 °C.
The value for `CS(=O)(=O)c1ccc(C(CC2CCCC2)C(=O)Nc2nccs2)cc1C(F)(F)F` (configuration not stated) was 117 to 121 °C; that for `CCOC(=O)C(=NO)c1csc(C)n1` was 90 to 92 °C; that for `CCCn1nc2c(N)nc3ccccc3c2c1CC(C)(C)NS(C)(=O)=O` was 130 to 139 °C.
The compound `CCN1C(=O)NC(=C(C(C)=O)C(C)=O)C1=O` registered a melting point of 152 to 153 °C.
With `Cc1ccc2[nH]c(C(=O)OC(C)C)c(Sc3ccc(Cl)cc3)c2c1`, the melting point is 172 to 174 °C.
The value for `CC(C)c1cccc(C(C)C)c1N1C(=O)c2ccc3c4cccc5c(C#CCCCCO)ccc(c6ccc(c2c36)C1=O)c54` was over 300 °C; that for `Cc1oc2ccc(NC(=O)c3ccccc3)nc2c1CCN(C)C` was 119 to 120 °C.
Under `COc1ccc(-c2csc(C=CC(=O)O)c2)cc1C(C)(C)C` stands 206 to 207 °C.
As for `O=C1CCCc2c1[nH]c1ccc(F)cc21`, the melting point was determined as 131 °C.
Under `CC(CN(C)C)N1c2ccccc2Sc2ccc(C(=S)NCC3CCCCC3)cc21` (racemic) stands 167 °C.
Under `O=c1oc(-c2ccc(F)cc2)nc2cccc(Cl)c12` stands 159 to 162 °C; under `CC12CC(F)C3c4ccc(O)cc4CC(CCCCCN4CCCC4CSCCCC(F)(F)C(F)(F)F)C3C1CCC2O` (configuration not stated), 174 to 176 °C; under `CC1(C)CCc2cc(C#N)ccc2O1`, 30 to 31 °C.
The value for `COc1cc2cc[nH]c2cc1OCCCN1CCC(c2noc3cc(F)ccc23)CC1` was 156 to 158 °C; that for `COc1cc2c(cc1Nc1ncc(Cl)c(Nc3ccccc3OCC#N)n1)CCOC(=O)N2C` was 245 to 247 °C; that for `Nc1ccccc1C(=O)OC1CCN(Cc2ccccc2)CC1` was 87 to 88 °C.
`O=C(O)CCn1cccc1Cn1ccnc1` yielded a melting point of 127 to 128 °C.
In turn, `Cc1cccc2nc(-c3c(F)cccc3F)[nH]c12` returned a melting point of 148 °C.
The value for `Cc1nc2c(C=O)cccn2c1C` was 145 to 148 °C; that for `Cc1ccccc1Cn1c(=O)c2c(N3CCN(C)CC3)cc(Cl)cc2n(Cc2ccccc2)c1=O` was 92 to 95 °C; that for `Cc1c(C(=O)Nc2ccc(N3CCCN(CCO)CC3)c(C#N)c2)cnn1-c1ccc(F)cc1` was 124 °C.
Under `CC(C)(C)OC(=O)N1CCCCC1c1c[nH]c2ncccc12` (configuration not stated) stands 144 to 145 °C.
Under `C[C@]12CCC(=O)N[C@@H]1CCc1cc(-c3ccccc3Cl)ccc12` stands 189 to 191 °C; under `Cc1ccc(CCC(=O)C(=[N+]=[N-])C(=O)CCc2ccc(C)cc2)cc1`, 45.6 to 46.8 °C.
Consider `CSc1ncc(Oc2ccc(Cl)cc2)c(=O)[nH]1`, for which the melting point fell in the range of 232 to 233 °C.
The value for `CCn1cc(C(=O)O)c(=O)c2cc(F)c(N3CCC4CCC(C3)N4)cc21` (configuration not stated) was 147 to 150 °C.
The value for `COC1C(O)C(CO)OC1n1cnc2c(NC3CCCCC3)ncnc21` (configuration not stated) was 88 to 91 °C.
